Results: US20190015335A1, “HEPATOPROTECTIVE PARTICLES AND SYSTEMS AND METHODS OF USE THEREOF” (South Dakota Board of Regents, priority 2017, published 2019)
Blank lines part the entries; values can stand above or below the compound they belong to.

What was measured:
[1] = test system: GSTP1 and GSTA3 in B16F1 melanoma tumor tissues; test: Western blot of GST expression in tumor tissues of mice bearing B16F1 tumor; format: in vivo; conditions: i.v., day 1 and day 2, FIG. 8B
Description: Mice bearing B16F1 tumor were intravenously administered with SFN or MIL-88A-SFN at a dose of 10 mg SFN per kg animal, through the tail vein in groups of eight. The expression levels of GSTP1 and GSTA3 in the liver and tumor tissues were measured by western blot at 24 and 48 h following the intravenous administration. Tissues from the groups of mice treated with PBS or MIL-88A were also analyzed.

[2] = test system: alanine aminotransferase (ALT) activity in blood serum; test: ALT activity in blood serum of mice bearing B16F1 tumor (DOX); format: in vivo
Description: (§1) Mice bearing a B16F1 tumor were intravenously administered through the tail vein in different groups of eight: (1) pretreatment with 25 mg of MIL-88A-SFN per kg of mouse at day 0 (corresponding to 3 mg SFN per kg of mouse according to the loading capacity of SFN in MIL-88A), followed by DOX at day 1 at 10 mg per kg of mouse; (2) pretreatment with SFN at 3 mg per kg of mouse at day 0, followed by DOX at day 1 at 10 mg per kg of mouse; (3) PBS injected at day 0, followed by DOX at day 1 at 10 mg per kg of mouse; and (4) PBS injected at both day 0 and day 1. Liver and blood samples were collected and analyzed to identify liver damage and morphology.

[3] = test system: CYP1A1/CYP1B1 in AML12 cells; test: CYP1A1/CYP1B1 activity in AML12 cells after doxorubicin; format: cell-based, mouse; conditions: FIG. 7
Description: (§2) MTT assay was performed to quantify AML12 cell survival after 24-hour exposure to 10 μM doxorubicin (DOX). The cells were pretreated with SFN or with MIL-88A-SFN. Control cells include those incubated with DOX without pretreatment, those incubated with MIL-88A-SFN alone without incubation with DOX, and those incubated with phosphate buffered saline (PBS). The activities of caspases and CYP1A1/CYP1B1 of these cells were also measured.

[4] = test system: liver tissues; test: Morphological microscopic analysis of liver tissues (DOX); format: in vivo, mice
Description: as §1

[5] = test system: CYP1A1/CYP1B1 in liver tissues; test: CYP1A1/CYP1B1 activity in liver tissues of mice bearing B16F1 tumor (DOX); format: in vivo
Description: as §1

[6] = test system: AML12 cells; test: MTT assay of AML12 cell survival after doxorubicin; format: cell-based, mouse; conditions: FIG. 5
Description: as §2

[7] = test system: GSTP1, GSTA3 and NQO1 in AML12 cells; conditions: 10 μM SFN, FIG. 3
Description: To validate the protective effect of SFN on a mouse hepatocyte cell line AML12, the expression levels of two glutathione-S-transferase (GST) isoforms, P1 and A3 (denoted as GSTP1 and GSTA3, respectively) and NAD(P)H:quinone oxidoreductase (NQO1), were quantified using western blot analysis after incubating the AML12 cells with SFN for 12, 24, and 36 hours. Beta-actin was used as a loading control.

[8] = test system: GST activity in AML12 cells; test: GST activity assay in AML12 cells; format: cell-based, mouse; conditions: 24 and 48 hours, 10 μM SFN, FIG. 4
Description: The effects of SFN (10 μM), MIL-88A MOF loaded with SFN (denoted as MIL-88A-SFN, 10 μM SFN final concentration), or a corresponding amount of unloaded MIL-88A MOF on the GST activity in AML12 cells were measured at 12, 24, or 48 hours after the treatment. The GST activity assay was performed in the presence of glutathione and 1-chloro-2,4-dinitrobenzene (a GST substrate). Measurements were performed in quadruplicate.

[9] = test system: caspase 3/7 and caspase 9 in AML12 cells; test: Caspase 3/7 and caspase 9 activity in AML12 cells after doxorubicin; format: cell-based, mouse; conditions: FIG. 6
Description: as §2

[10] = test system: caspase 3/7 in liver tissues; test: Caspase 3/7 activity in liver tissues of mice bearing B16F1 tumor (DOX); format: in vivo
Description: as §1

[11] = test system: B16F1 tumor; test: Tumor volume in mice bearing B16F1 tumor, DOX with or without pretreatment; format: in vivo; conditions: DOX 10 mg per kg i.v. at day 1, with or without pretreatment, vs PBS only, FIG. 9
[12] = test system: caspase 3 in liver tissues; test: Western blot of pro-caspase 3 and active caspase 3 in liver tissues (DTIC); format: in vivo, mice; conditions: DTIC 120 mg per kg, 4 cycles, FIG. 18
Description: (§3) Mice bearing B16F1 tumor were intravenously administered through the tail vein in different groups of eight: (1) pretreatment with PLGA-SBN (corresponding to 10 mg SBN per kg of mouse), followed by dacarbazine (DTIC) on the next day at a dose of 120 mg per kg mouse; (2) pretreatment with SBN (10 mg per kg), followed by DTIC on the next day at a dose of 120 mg per kg mouse; (3) PBS, followed by DTIC on the next day at a dose of 120 mg per kg mouse; (4) pretreatment with plain PLGA and free (non-encapsulated) SBN (10 mg per kg of mouse), followed by PBS on the next day; and (5) PBS injected at both days (once per day). Liver and blood samples were collected and analyzed to identify liver damage and morphology.

[13] = test system: alanine aminotransferase (ALT) activity in blood serum; test: ALT activity in blood serum of mice bearing B16F1 tumor (DTIC); format: in vivo; conditions: DTIC 120 mg per kg, 4 cycles, FIG. 16
Description: as §3

[14] = test system: bilirubin in blood serum; test: Bilirubin concentration in blood serum of mice bearing B16F1 tumor (DTIC); format: in vivo; conditions: DTIC 120 mg per kg, 4 cycles, FIG. 17
Description: as §3

[15] = pretreatment then 10 μM DOX 24 h

DOX-induced upregulation of CYP1A1/CYP1B1 after pretreatment [3, 15]: suppressed the upregulation
SMILES: C[S+]([O-])CCCCN=C=S (stereo not shown) [SFN, sulforaphane]
GST expression in B16F1 melanoma tumor tissues [1]: neither SFN nor MIL-88A-SFN strongly affected | DOX-induced upregulation of ALT activity after pretreatment ([2]; 3 mg SFN per kg day 0, DOX 10 mg per kg day 1, FIG. 10): attenuated the upregulation | DOX-induced liver pathology after pretreatment ([4]; 3 mg SFN per kg day 0, DOX 10 mg per kg day 1): attenuated the aforementioned symptoms of hepatotoxicity | DOX-induced upregulation of liver CYP1A/CYP1B activity after pretreatment ([5]; 3 mg SFN per kg day 0, DOX 10 mg per kg day 1, FIG. 12): but not SFN, attenuated the upregulation | apoptosis / cell survival after pretreatment [6, 15]: significantly decreased apoptosis | expression of phase 2 enzymes GSTP1 and GSTA3 ([7]; 24 h, vs untreated cells): upregulation | expression of NQO1 [7]: enhanced expression | GST activity [8]: equaled the GST activity in the cells treated with SFN-loaded MIL-88A | caspase activity after pretreatment [9, 15]: significantly decreased | DOX-induced upregulation of liver caspase activity after pretreatment ([10]; 3 mg SFN per kg day 0, DOX 10 mg per kg day 1, FIG. 11): but not SFN, attenuated the upregulation

level of CYP1A1/CYP1B1 ([3]; 10 μM DOX 24 h): induced an increase | CYP1A/CYP1B activity in the liver tissues ([5]; DOX 10 mg per kg i.v., FIG. 12): induced an upregulation | caspase activity ([9]; 10 μM DOX alone 24 h): highest caspase activity | caspase activity in the liver tissues ([10]; DOX 10 mg per kg i.v., FIG. 11): induced an upregulation
SMILES: COc1cccc2c1C(=O)c1c(O)c3c(c(O)c1C2=O)C[C@@](O)(C(=O)CO)C[C@@H]3O[C@H]1C[C@H](N)[C@H](O)[C@H](C)O1 [DOX, doxorubicin]
ALT activity in blood serum ([2]; DOX 10 mg per kg i.v., FIG. 10): induced an upregulation | liver morphology (hepatotoxicity) ([4]; DOX 10 mg per kg i.v.): induced moderate cholestasis, focal necrosis, and mononuclear infiltration of sinusoids | cell survival rate ([6]; 10 μM DOX alone 24 h): lowest survival rate | tumor volume [11]: lower tumor volumes up to at least 9 days

caspase 3 activation in liver tissues [12]: induced caspase 3 activation | bilirubin concentration in blood serum [14]: induced an upregulation
SMILES: CN(C)/N=N/c1[nH]cnc1C(N)=O [DTIC, dacarbazine]
ALT activity in blood serum [13]: induced an upregulation
